3 molecules from ChEMBL document CHEMBL2073865 (Drug Metab Dispos, 2004) can be followed below.

Structures are written as SMILES. Counter-ions that a name gives are not always drawn.

Format in all cases: functional, cell-based
The target in data set [1] is T1, ATP-dependent translocase ABCB1 (Homo sapiens, UniProt P08183). In words: TP_TRANSPORTER: transepithelial transport of erythromycin in the presence of 3-Carboxy-4-methyl-5-propyl-2-furanpropanoic acid at 500uM and 1mM in MDR1-expressing MDCK cells. To be noted: dog.
T1 sequence (P08183 whole entry): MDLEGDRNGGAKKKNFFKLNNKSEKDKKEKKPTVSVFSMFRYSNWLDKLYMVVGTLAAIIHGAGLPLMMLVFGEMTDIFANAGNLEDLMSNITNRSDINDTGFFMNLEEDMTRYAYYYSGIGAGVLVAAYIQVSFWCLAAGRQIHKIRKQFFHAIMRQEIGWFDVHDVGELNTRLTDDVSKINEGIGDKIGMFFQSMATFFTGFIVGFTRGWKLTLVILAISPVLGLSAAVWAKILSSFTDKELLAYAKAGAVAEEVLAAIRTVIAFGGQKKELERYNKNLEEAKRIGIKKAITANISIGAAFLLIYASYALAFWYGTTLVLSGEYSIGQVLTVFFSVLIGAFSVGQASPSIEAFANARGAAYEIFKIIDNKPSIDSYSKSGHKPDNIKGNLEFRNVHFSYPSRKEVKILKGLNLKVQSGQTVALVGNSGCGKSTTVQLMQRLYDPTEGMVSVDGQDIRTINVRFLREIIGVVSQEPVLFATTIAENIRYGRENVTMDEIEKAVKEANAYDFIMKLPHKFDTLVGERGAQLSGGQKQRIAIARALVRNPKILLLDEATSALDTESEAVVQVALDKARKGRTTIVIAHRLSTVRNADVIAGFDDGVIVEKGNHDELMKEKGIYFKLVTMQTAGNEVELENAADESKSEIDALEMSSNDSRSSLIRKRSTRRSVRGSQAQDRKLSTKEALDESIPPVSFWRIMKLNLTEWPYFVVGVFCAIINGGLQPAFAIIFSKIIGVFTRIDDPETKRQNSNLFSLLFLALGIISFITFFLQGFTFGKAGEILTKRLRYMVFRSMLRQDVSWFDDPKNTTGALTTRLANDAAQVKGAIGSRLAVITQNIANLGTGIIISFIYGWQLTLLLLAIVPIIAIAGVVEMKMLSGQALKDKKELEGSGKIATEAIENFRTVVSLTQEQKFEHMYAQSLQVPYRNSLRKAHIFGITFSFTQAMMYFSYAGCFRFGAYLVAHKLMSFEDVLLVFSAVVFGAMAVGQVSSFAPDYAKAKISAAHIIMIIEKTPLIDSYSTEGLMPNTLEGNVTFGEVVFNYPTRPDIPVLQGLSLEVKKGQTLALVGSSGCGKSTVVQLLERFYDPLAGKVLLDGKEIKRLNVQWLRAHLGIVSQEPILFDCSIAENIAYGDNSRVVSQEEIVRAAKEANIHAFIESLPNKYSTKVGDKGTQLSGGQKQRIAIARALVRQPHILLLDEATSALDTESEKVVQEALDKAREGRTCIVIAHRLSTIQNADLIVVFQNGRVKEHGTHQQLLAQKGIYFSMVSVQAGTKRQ
For data set [2], the target named is T1, ATP-dependent translocase ABCB1. Nature of the data set: TP_TRANSPORTER: transepithelial transport of erythromycin in the presence of Hippurate at 2mM in MDR1-expressing MDCK cells. To be noted: dog, 2000 µM.
Data set [3] has the same target. Nature of the data set: TP_TRANSPORTER: transepithelial transport of erythromycin in the presence of Indoxyl sulfate at 1mM in MDR1-expressing MDCK cells. The following applies: dog, 1000 µM.

In the case of `CCCc1oc(CCC(=O)O)c(C(=O)O)c1C`, the Activity result in data set [1] was “is not an inhibitor [-]”.

For `O=C(O)CNC(=O)c1ccccc1` [HIPPURIC ACID], the Activity result in data set [2] was “is not an inhibitor [-]”.

For the molecule `O=S(=O)(O)Oc1c[nH]c2ccccc12` [INDOXYL SULFATE], the Activity entry in data set [3] is “is not an inhibitor [-]”.
